# Results as given in patent US20250213606A1, “MEDICINAL AGENT (EMBODIMENTS) AND DEVICE FOR USING SAME” (priority 2022, published 2025).
# Columns and labels:
# [1] = system: laboratory animals and volunteer testers; assay: Effective concentration ranges of the components of the mixture; assay type: in vivo
# [2] = governs risk of condensation in cold conditions; cited from earlier work
structure (smiles),measurement,setting,value
[Ar] [argon],"range of efficiency with the greatest effect, concentration in a mixture with oxygen","[1]; laboratory animals, volunteer testers and foreign sources",30-70 % by volume
[He] [helium],effective content providing antihypothermic and antihypoxic effects,"[1]; in a mixture with oxygen from 21, argon at least 25 % by volume, xenon and krypton, mixture temperature 30 to 70° C.",at least 40 % by volume
[Kr] [krypton],critical temperature,[2],209.35 K
